Assay results: publication PMC7845594, “Novel Immune Modulators Enhance Caenorhabditis elegans Resistance to Multiple Pathogens” (mSphere, 2021)
Entries after “also recorded” stand apart in the source; their conditions may differ. Like-named read-outs stand apart in the source and are kept apart here.

Assays:
MOLT-4 = details: cited from earlier work
[1] = test system: P. aeruginosa strain PA14; assay: MIC assay (bacterial growth, no worms); format: cell-based, Pseudomonas aeruginosa; details: for MIC: Pseudomonas aeruginosa; for MIC / EC: ratio of MIC to EC, P. aeruginosa PA14
Method: For the first round of characterization, 69 novel small molecules previously selected on the basis of their ability to improve C. elegans survival during exposure to P. aeruginosa in liquid ([14]) were tested for the ability to interfere with bacterial growth. MICs were determined for each compound by growing P. aeruginosa strain PA14 in static culture in 384-well plates with serial 2-fold dilutions of compounds. No worms were used in these assays. Next, effective rescue concentrations (EC; defined as the minimum concentration that results in statistically significant survival, compared to dimethyl sulfoxide [DMSO]) ([15], [18]) were determined for each compound using the standard P. aeruginosa liquid killing assay. Sterile glp-4(bn2) worms were used in all liquid-based assays to limit artifacts (i.e., unlaid eggs will hatch and cause matricide).
Plates were allowed to grow for 24 h at 37°C without shaking. Growth was scored visually on the basis of turbidity. At least three biological replicates were performed.

RWPE-1 cells = assay: MTT cell viability assay; details: RWPE-1, 10, 50, or 100 µM, 24 h; cell death greater than 30% = toxicity
Method: (B) 1.5 × 10^4 RWPE-1 immortalized prostate cells were seeded into each well of a 96-well plate. […] The viability was normalized to a DMSO solvent control. Six wells were used per condition, and an average of three biological replicates is shown.
We also tested compound toxicity in RWPE-1 cells, a well-established, noncancerous, immortalized prostate epithelial cell line available in the lab. Cells were seeded in 96-well plates and allowed to attach before media containing various concentrations of one of the compounds (or DMSO as a control) were added. […] Cell death greater than 30% was considered evidence of toxicity (Fig. 3B).
Then, 100 µl of DMSO was added, and the absorbance at 590 nm measured. MTT assays were performed in triplicate.

CCRF-CEM = details: cited from earlier work
[2] = test system: glp-4(bn2) worms exposed to P. aeruginosa isolate PA2-61; assay: Liquid killing assay with cystic fibrosis isolate; format: in vivo, Caenorhabditis elegans; details: isolate PA2-61, serial 2-fold dilutions from 50 µM to 12.5 μM
Method: We also tested these strains against a P. aeruginosa isolate from a pediatric cystic fibrosis patient, P. aeruginosa PA2-61, that we previously characterized ([22]).
The minimum effective concentration was calculated from the lowest concentration that retained statistically significant rescue of glp-4(bn2) C. elegans, a temperature-sensitive sterile strain, from exposure to P. aeruginosa PA14. […] Compounds were added in serial 2-fold dilutions from 50 µM to 12.5 μM. *, P < 0.05; **, P < 0.01; ***, P < 0.001. P values were calculated using Student’s t test. At least six wells containing 20 worms each per condition per replicate were used for determination of liquid killing. EC values were calculated based on at least three biological replicates. Error bars represent the standard error of the mean.
Liquid killing of C. elegans was performed as previously described with some changes ([91]). In brief, an overnight culture of LB medium was inoculated with a single colony of Pseudomonas aeruginosa strain PA14. Then, 400 µl of culture was spread onto a 10-cm slow-kill agar plate ([91]) and grown for 24 h at 37°C, followed by 24 h at 25°C. Bacteria were scraped from the plate, resuspended in S Basal medium, and added to 384-well plates with small molecules dissolved in DMSO. Solution in wells contained a final concentration of 40% SK media, 59% S Basal medium, 1% DMSO, and small molecules. For all liquid-based killing assays, solvent control wells contained 1% DMSO. MgSO4 and CaCl2 (300 µM) and cholesterol (1.6 µg/ml) were added to aid in production of virulence factors. Worms were sorted into 384-well plates using a COPAS FlowSort (Union Biometrica, Holliston, MA), incubated at 25°C until the DMSO control was roughly 35 to 55% dead, washed four times using an EL406 microplate washer (BioTek, VT), and stained with 50 μl of Sytox Orange at 1 µM to fluorescently stain dead worms. Wells were imaged in bright-field and RFP channels using the BioTek Cytation5, followed by image analysis using the CellProfiler software package to calculate fraction of dead worms in each well. […]

C. elegans transcriptome = assay: Gene ontology enrichment (DAVID) of up-/downregulated genes; parameters: species or system Caenorhabditis elegans; details: upregulated genes, 100 µM, 8 h
Method: To gain additional insight into the effect of LK molecules on C. elegans, young-adult, wild-type worms were treated with each drug at 100 µM for 8 h in the absence of pathogen. RNA was collected, and transcriptome profiling was performed.
Supplementary file : TABLE S4 Enriched gene ontology categories. […] Redundant gene ontology categories were removed. Download Table S4, XLSX file, 0.02 MB.
Transcriptome profiling was performed on ∼6,000 wild-type, young adult worms incubated with either LK molecules or DMSO for 8 h. RNA isolation was performed using TRIzol extraction, followed by cleanup using RNeasy columns according to the manufacturer’s protocol. Each condition was analyzed in triplicate. Microarray data have been deposited in the GEO database, accession number GSE137516. […] Clustering and generation of the heat map was performed using Cluster 3.0 ([98]) and Treeview ([99]), respectively. Fold change of genes were normalized to average fold change of that gene over all clustered conditions. Genes and conditions were clustered using Euclidean distance and average linkages. […] Microarray data for non-LK molecules were collected from GEO omnibus. WormEXP was used as a secondary method for confirming statistical significance of potential pathways stimulated by each of the LK molecules ([100]). Gene ontologies were generated using DAVID ([101], [102]).

PMK-1/p38 MAPK pathway = assay: irg-5p::GFP reporter; format: in vivo, Caenorhabditis elegans; details: 25, 50, or 100 μM, 24 h, no pathogen
Description: To test activation of these pathways, worms carrying GFP-based reporters for the SKN-1/Nrf, PMK-1/p38 MAPK, and DAF-16/FOXO pathways (gst-4p::GFP, irg-5p::GFP, and DAF-16::GFP, respectively) were exposed to each compound in S Basal medium in the absence of the pathogen.
FIG 4 A subset of LK molecules activates reporters for the SKN-1/Nrf2 or PMK-1/p38 MAPK pathways. […] Also present are DMSO and ethanol negative controls for LK compounds and juglone, respectively. The fluorescence intensity was normalized to that of DMSO. (B) Worms carrying an irg-5p::GFP reporter for PMK-1/p38 MAPK activity were incubated at 25, 50, or 100 μM in 1% DMSO. Positive and negative controls consisted of 100 μM RPW-24 in 1% DMSO and 1% DMSO alone. Fluorescence was measured at 24 h. […] P values were calculated using Student’s t test. […]
Worms were washed three times prior to incubation with compounds or DMSO control and diluted in S Basal medium supplemented with E. coli OP50 (OD600 = 0.08) as a food source. The fluorescence fold increase for gst-4p::GPF was taken as the fluorescence of each well and was normalized to the well’s fluorescence at 0 h. irg-5p::GFP, hsp-16.1p::GFP, rpt-6p::GFP, and hsp-4::GFP fluorescence was quantified as the fluorescence/worm area. […] For quantification of nuclear localization of GFP fusion reporters, worms were scored as either localization positive or localization negative. […]

ESRE network = assay: hsp-16.1p::GFP reporter (ESRE activation); format: in vivo, Caenorhabditis elegans; details: 50 or 100 μM, no pathogen
Description: Previous work from our lab has established that the ESRE network plays an important role in the resistance of C. elegans to pyoverdine, the main virulence determinant in liquid killing, and recent evidence has shown that ESRE activation depends on increased reactive oxygen species (ROS) ([23], [38], [39]). To evaluate ESRE activation, worms carrying an hsp-16.1p::GFP reporter (which contains two ESRE motifs and was previously used as an indicator of ESRE activation [[39][–][41]]), were exposed to 50 or 100 μM LK35, LK38, LK56, juglone (positive control), or DMSO. […] ROS level was assessed based on the fluorescence of dihydroethidium (DHE; a ROS-specific dye) using a COPAS FlowSort for flow vermimetry.
Young adult wild-type (A), hsp-4p::GFP (B), hsp-16.1p::GFP (C), or rpt-3::GFP (D) worms were incubated with LK molecules at 50 or 100 µM, DMSO control, or positive controls. For panel A, the worms were treated with compound for 10 h, and then the worms were stained with 4 µM DHE for 1 h before washing and fluorescence measurement. For panels B to D, the worms were treated with compound for 15 h prior to fluorescence measurement. Mean values from at least three biological replicates are shown. *, P < 0.05; **, P < 0.01; ***, P < 0.001 (compared to the solvent control). P values were calculated using Student’s t test. Error bars represent the standard error of the mean. […]

[3] = P. aeruginosa PA14, LB media, static culture, no worms, read-out: MIC

Row | Compound | LD50 (MOLT-4) | MIC [1, 3] | MIC / EC [1] | Toxicity in mammalian cells (MTT viability) (RWPE-1 cells) | LD50 (CCRF-CEM) | MIC ([1]; PA14) | Dose dependence of rescue in liquid killing [2] | Fold Enrichment, GO term Cytochrome P450 (C. elegans transcriptome) | irg-5p::GFP fluorescence (PMK-1/p38 MAPK activation) (PMK-1/p38 MAPK pathway) | ESRE activation (hsp-16.1p::GFP) (ESRE network)
1 | COC(=O)/C=C/C(=O)Nc1ccccc1 [LK32] | ~40 µM | > 975 µM | > 30.5 | poorly tolerated; also recorded: substantial toxicity | ~40 µM | – | – | – | – | –
2 | CNC(=O)Oc1c(Br)cc2sc(=O)oc2c1Br [LK34] | – | – | > 56.1 | some toxicity | – | > 522 µM | dose-dependent rescue | – | – | –
3 | CCN(CC)/N=N/c1ccc(C(=O)O)cc1 [LK35] | – | > 908 µM | > 52.4 | – | – | – | – | – | – | –
4 | CN(C)/N=N/c1ccc(-c2cn(Cc3ccccc3)cn2)cc1 [LK38] | – | > 655 µM | > 97.8 | – | – | – | dose-dependent rescue | 12.2 | modest increase | –
5 | O=c1cc(CNc2ccc(Br)cc2)nc2sccn12 [LK56] | – | > 595 µM | > 81.5 | – | – | – | dose-dependent rescue | 12.9 | modest increase | weak activation
